The source of these data is paper PMC5321741, “Arylmethylamino steroids as antiparasitic agents” (Nature Communications, 2017).

Broadly, the GI50 is the concentration at which growth is held to half of that of the control. Low readings indicate more potent growth inhibition, high ones less potent growth inhibition.

Format in all cases: cell-based
Assay [1] has as its system adult Schistosoma mansoni. As to the kind of experiment: schistosome in vitro culture with inhibitor treatment. As to conditions: for morphological effects (confocal laser scanning microscopy): 5 μM, 6–13 days; for starting concentration with negative influence on worm physiology: pairing stability, egg production, survival, bright-field microscopy.
Another assay concerns K-562. As to the kind of experiment: antiproliferative activity on K-562 cells. Conditions: Homo sapiens, K562, 72 h. Put shortly:
(§1)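 K-562 and HeLa seeded at ∼10,000 cells/well; HeLa preincubated 48 h without compound before cytotoxicity testing. 72 h exposure at 37 °C, 5% CO2; K-562 counted by electronic cell analyzer, HUVEC and HeLa glutaraldehyde-fixed, methylene blue-stained, OD 660 nm; GI50 (antiproliferative) and CC50 (cytotoxicity) derived.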

In a further assay the test system is HUVEC. As to the kind of experiment: antiproliferative activity on HUVEC cells. Conditions: Homo sapiens, HUVEC, 72 h. Put shortly:
as §1

For assay [2], the system named is Enterococcus faecalis JMRC:ST:33700 (Vancomycin-resistant). The assay is described as follows: agar diffusion inhibition zone test. Conditions: 1o, ciprofloxacin 5 µg/ml, solvent DMSO 12P. As for the experimental part: (§2) The following organisms were tested at the Hans Knöll Institute in Jena, for their susceptibility to the compounds 1o and 2o: Bacillus subtilis JMRC:STI:10880, Staphylococcus aureus JMRC:ST:10760, Escherichia coli JMRC:ST:33699, Pseudomonas aeruginosa JMRC:ST:33772, Pseudomonas aeruginosa JMRC:ST:337721, Staphylococcus aureus JMRC:ST:33793 (multi-resistant), Enterococcus faecalis JMRC:ST:33700 (Vancomycin-resistant), Mycobacterium vaccae JMRC:STI:10670, Sporobolomyces salmonicolor (Basidiomycetes yeast) JMRC:ST:35974, Candida albicans (Ascomycetes yeast) JMRC:STI:25000, Penicillium notatum JMRC:STI:50164.
(§3) The bacteria were propagated in Mueller Hinton Broth (Oxoid)[49]. Yeast was propagated in YPD (yeast extract peptone dextrose): 1% yeast extract, 10 g; 2% peptone, 20 g; 2% agar, 20 g; 2% dextrose (glucose), 20 g; Sigma-Y1375. All bacteria and yeast suspensions were freshly made. The cultures were incubated at 37 °C for 16 h. Afterwards, the bacteria concentration from each culture was determined, and 34 ml of nutrient agar was loaded with 10^7 cells. These cultures were stored at 6-8 °C and could be used for seven days for the preparation of test plates. 34 ml of nutrient agar was liquefied and inoculated with the calculated amount of inoculum bacteria suspension at 48–50 °C, a temperature suitable for vegetative forms of bacteria. The inoculated nutrient media (34 ml each) were immediately poured into the prepared test plates (3 mm layer). With a punching device, 12 holes per test plate were punched out. For inhibiting bacterial growth, ciprofloxacin was used as a reference substance. The test substances were dissolved in distilled water, and 5 μg ml^−1 and 50 μl was added to each bacterial culture. For inhibition of fungal growth, amphotericin B served as the reference substance. The test substances were diluted to 10 μg ml^−1 in DMSO/methanol; 50 μl was added to each culture.
(§4) Configuring the test plate; volumes/punched hole: 50 μl; test solutions/test plate: 1 × 50 μl reference substance. Test plates were cultivated for 18 h at 37 °C. Analysis: Reading the inhibition zones (IZ): As IZ, the zone in which no growth can be determined with the naked eye is measured; the tiniest colonies on the edge of the inhibition zone were therefore not taken into consideration. The diameter (φ) of the IZ is measured in mm. The analysis of IZ φ is carried out internationally with the help of statistic procedures, especially regression analysis. With each test approach, the reference substance was brought along as a control; if there were deviations from allowed IZ φ, the test was repeated.
(§5) The inhibition of bacterial growth was determined using bacterial cultures grown in Müller-Hinton Bouillon, which was configured at barely visible opacity with the McFarland Standard Nr. 0.5, which indicates a bacterial density of 10^8 ml^−1. This bacterial suspension was diluted with Müller-Hinton Bouillon using 2-fold dilution series in the agar diffusion test.
(§6) Analysis: The growth in the inhibition zones around the holes containing active substances is thereby compared with the growth in the growth control (no active substance). Bacterial growth was determined according to four measurements: p=presence of colonies in the inhibition zone, P=presence of many colonies in the inhibition zone, A=indication of inhibition, F=facilitation.
Background: Agar diffusion results depend on both activity and mobility in agar.

Assay [3] relates to Staphylococcus aureus JMRC:ST:10760. As to the kind of experiment: agar diffusion inhibition zone test. As to conditions: 1o, ciprofloxacin 5 µg/ml, solvent DMSO 12P. As for the experimental part:
as §2, §3, §4, §5, §6

In assay [4] the test system is Mycobacterium vaccae JMRC:STI:10670. The assay is described as follows: agar diffusion inhibition zone test. As to conditions: 1o, 2o 1,000 µg/ml in DMSO; ciprofloxacin 5 µg/ml; solvent DMSO 13P. As for the experimental part: as §2, §3, §4, §5, §6
Assay [5] relates to Pseudomonas aeruginosa JMRC:ST:337721. The assay is described as follows: agar diffusion inhibition zone test. Conditions: 1o, ciprofloxacin 5 µg/ml, solvent DMSO 16P. As for the experimental part: as §2, §3, §4, §5, §6
For assay [6], the system named is Escherichia coli JMRC:ST:33699. The assay is described as follows: agar diffusion inhibition zone test. Conditions: 1o, 2o 1,000 µg/ml in DMSO; ciprofloxacin 5 µg/ml; solvent DMSO 13P. As for the experimental part:
as §2, §3, §4, §5, §6

Assay [7] deals with Penicillium notatum JMRC:STI:50164. The assay is described as follows: agar diffusion inhibition zone test. Conditions: 1o, 2o 1,000 µg/ml in DMSO, amphotericin B 10 µg/ml, solvent DMSO 13p. As for the experimental part: as §2, §3, §4, §5, §6
Assay [8] has as its system Staphylococcus aureus JMRC:ST:33793 (multi-resistant). As to the kind of experiment: agar diffusion inhibition zone test. As to conditions: 1o, ciprofloxacin 5 µg/ml, solvent DMSO 12P. As for the experimental part: as §2, §3, §4, §5, §6
Assay [9] deals with Sporobolomyces salmonicolor JMRC:ST:35974. As to the kind of experiment: agar diffusion inhibition zone test. Conditions: 1o, 2o 1,000 µg/ml in DMSO; amphotericin B 10 µg/ml; solvent DMSO 20p. As for the experimental part: as §2, §3, §4, §5, §6
In assay [10] the test system is Pseudomonas aeruginosa JMRC:ST:33772. The assay is described as follows: agar diffusion inhibition zone test. As to conditions: 1o, ciprofloxacin 5 µg/ml, solvent DMSO 13P. As for the experimental part: as §2, §3, §4, §5, §6
Assay [11] relates to Bacillus subtilis JMRC:STI:10880. As to the kind of experiment: agar diffusion inhibition zone test. As to conditions: 1o, ciprofloxacin 5 µg/ml, solvent DMSO 12P. As for the experimental part:
as §2, §3, §4, §5, §6

As to `COc1ccc2c(c1)CCC1C2CC[C@@]2(C)C1CC[C@H]2NCc1cc2ccccc2cc1O` (stereo partly drawn) [1o], in assay [1], the “morphological effects (confocal laser scanning microscopy)” value is “swellings and invaginations occurred at the tegument”; the “starting concentration with negative influence on worm physiology” value is recorded as 5 μM. For the same compound, in assay [1] (10 µM, starting from days 1 and 2), the “reduction of egg production and motility” value was “about 75%”. For the same compound, in assay [1] (20 µM, from day 2 on), the effect on survival entry is listed as “nearly all worms were dead”. Besides, in the assay on K-562, growth was halved (GI50) at 5 µM. Also, the GI50 with HUVEC turned out to be 108 µM. Moreover, the “inhibition zone diameter, VRSA Enteroc. faecalis (R10)” value in [2] (2o 1,000 µg/ml in DMSO) is reported as 0 mm. Moreover, in assay [3] (2o 1,000 µg/ml in DMSO), the “inhibition zone diameter, Staphylococcus aureus (B3)” value was determined as 0 mm. Also, in [4], the “inhibition zone diameter, Mycobac. vaccae (M4)” value came to 18p. Also, the “inhibition zone diameter, Pseudomonas aeruginosa JMRC:ST:337721 (B9)” value in assay [5] (2o 1,000 µg/ml in DMSO) is reported as 0 mm. Besides, in [6], the “inhibition zone diameter, Escherichia coli (B4)” value turned out to be 15P. Besides, the “inhibition zone diameter, Penicillium notatum (P1)” value in assay [7] was determined as 0 mm. Besides, in assay [8] (2o 1,000 µg/ml in DMSO), the “inhibition zone diameter, MRSA Staph. aureus (R9)” value amounted to 0 mm. Moreover, the “inhibition zone diameter, Sporobolo. salmonicolor (H4)” value in assay [9] is reported as 22p. For the same compound, the “inhibition zone diameter, Pseudomonas aeruginosa JMRC:ST:33772 (B7)” value in assay [10] (2o 1,000 µg/ml in DMSO) is given as 0 mm. Moreover, the “inhibition zone diameter, Bacillus subtilis (B1)” value in assay [11] (2o 1,000 µg/ml in DMSO) was 0 mm.
As for `COc1ccc2c(c1)CCC1C2CC[C@@]2(C)C1CC[C@@H]2NCc1cc2ccccc2cc1O` (stereo partly drawn) [2o], the “morphological effects (confocal laser scanning microscopy)” value in assay [1] was “the diameter of the testicular lobes was reduced, the ovary was disorganized”. Further, in assay [1] (10 µM), the effect on survival entry is “caused the death of the parasites within a week”. Besides, the “time to death of worms” value in assay [1] (10 µM) is listed as no more than 3 days; in [1] (20 µM), 1 days. For the same compound, the “starting concentration with negative influence on worm physiology” value in assay [1] was 1 μM. Besides, the results for the GI50 in the assay with K-562 and in the assay on HUVEC were 2.5 µM and 13.8 µM, respectively. Besides, the zone of inhibition in [2] (read-out: inhibition zone diameter, VRSA Enteroc. faecalis (R10)) came to 0 mm; in [3] (Staphylococcus aureus, read-out: inhibition zone diameter, Staphylococcus aureus (B3)), 0 mm; in assay [5] (Pseudomonas aeruginosa, read-out: inhibition zone diameter, Pseudomonas aeruginosa JMRC:ST:337721 (B9)), 0 mm; in [8] (Staphylococcus aureus, MRSA, read-out: inhibition zone diameter, MRSA Staph. aureus (R9)), 0 mm; in assay [10] (Pseudomonas aeruginosa, read-out: inhibition zone diameter, Pseudomonas aeruginosa JMRC:ST:33772 (B7)), 0 mm; in assay [11] (Bacillus subtilis, read-out: inhibition zone diameter, Bacillus subtilis (B1)) it was 0 mm. Also, the “inhibition zone diameter, Mycobac. vaccae (M4)” value in [4] is recorded as 17p. Further, the “inhibition zone diameter, Escherichia coli (B4)” value in [6] is given as 16P. For the same compound, in [7] (Penicillium chrysogenum, read-out: inhibition zone diameter, Penicillium notatum (P1)), the zone of inhibition at 1000 µg/mL was 0 mm. In assay [9], the “inhibition zone diameter, Sporobolo. salmonicolor (H4)” value is reported as 24p.
